Experimental data reported in US20250170224A1, “METHODS AND COMPOSITIONS FOR TREATING MICROGLIAL DYSFUNCTION AND IMPROVING METABOLIC DYSFUNCTION” (Ultimate Medicine AG, priority 2021, published 2025).

Tested on: microglia
Test: CML given intraperitoneally or by oral gavage to young-adult and aged SPF mice; microglia analysed
Format: in vivo, mouse
Protocol: Specific pathogen-free (SPF) and germ-free (GF) housed C57BL/6 mice were analyzed at 6-10 weeks of age (young-adult) and 96-104 weeks of age (aged). Mice of the aged group in the nontargeted metabolomics analysis were 17-18 months old. Except for nontargeted metabolomics and microbiota profiling, where only male mice were used, all groups included mice from both sexes. Mice were housed under a 12-hour light/12-hour dark cycle and temperatures of 18-23° C. with 40-60% humidity, with food and water given ad libitum. To avoid cage effects, mice from at least three different cages per experimental group were analyzed. […] For modulation of CML in aged animals, 18-month-old SPF housed C57BL/6 mice were treated orally every third day for 10 weeks with vehicle (20% hydroxypropyl-p-cyclodextrin in 1× phosphate-buffered saline (PBS)), 10 mg kg^−1 ellagic acid (EA) or 3,000 U kg^−1 intestinal alkaline phosphatase (IAP). To assess in vivo intestinal permeability, tracer fluorescein isothiocyanate (FITC)-labeled dextran (4 kDa: Sigma-Aldrich) was used. Briefly, mice were deprived of food 4 hours before and both food and water 4 hours after oral gavage using 200 μl of 80 mg ml^−1 FITC-dextran. Blood was collected retro-orbitally after 4 hours and fluorescence intensity was measured on fluorescence plates using an excitation wavelength of 493 nm and an emission wavelength of 518 nm. To assess in vivo intestinal permeability to CML, mice were treated with […] CML (0.36 mM). Blood was collected retro-orbitally immediately before and 4 hours after treatment. CML translocated into the circulation was measured by liquid chromatography-mass spectrometry (LC-MS). All animal experiments were approved by the local administration in Germany (Regierungsprasidium Freiburg) and were performed in accordance with the respective national, federal, and institutional regulations and the guidelines of the Federation of European Laboratory Animal Science Associations.
Brains were fixed in 4% PFA, dehydrated in 30% sucrose and embedded in Tissue-Tek OCT compound (Sakura Finetek). Fourteen micrometer-thick cryosections were obtained using a cryostat (SM2000R; Leica Biosystems). FFPE tissue from mouse and human brains was sectioned by a microtome to obtain 5-pm sections. Epitopes were unmasked by heat-induced antigen retrieval at pH 6. Sections were blocked with PBS containing 5% bovine serum albumin (BSA) and permeabilized with 0.5% Triton X-100 in blocking solution. The following primary antibodies were incubated overnight at 4° C.: rabbit anti-Iba-1 (1:500 dilution; WAKO); guinea pig anti-Iba-1 (1:1,000 dilution; Synaptic Systems); anti-iNOS (1:500 dilution; Thermo Fisher Scientific) or anti-CML (1:500; Abcam). Secondary antibodies (Alexa Fluor 488-, 568- or 647-conjugated, 1:500 dilution) were incubated for 2 hours at room temperature. For three dimensional (3D)-reconstruction of microglia, free-floating 30-pm cryosections from brain tissue were labeled for 48 hours with anti-Iba-1 (1:500 dilution) at 4° C., followed by Alexa Fluor 647-conjugated secondary antibody at a dilution of 1:500 overnight at 4° C. […] For 3D-reconstruction of microglia, images were analyzed using Imaris v.8.02 (Bitplane) with at least five cells per mouse. All other images were processed and analyzed with Photoshop CC 2015 (Adobe) or ImageJ v.1.53f (National Institutes of Health). […]

[1] = aged mice, both intraperitoneal and oral gavage routes

## N[C@@H](CCCCNCC(=O)O)C(=O)O [CML, N^6-carboxymethyllysine]
[1]
  cellular ROS in microglia: significantly exacerbated the age-related increase in cellular ROS
  metabolic function (cellular ATP) in microglia: diminished metabolic function
Aged mice, i.p. versus oral gavage
  effect of route of CML administration on percentage of CML+ microglia: no effect
young-adult mice
  CML+ microglia in the cortex, intraperitoneal rather than oral gavage: more CML^+ microglia in the cortex
young-adult mice, i.p. versus oral gavage
  effect on cellular ROS and metabolic function in microglia: only detectable after intraperitoneal administration
